Assay results taken from ChEMBL document CHEMBL1158270, “Triangulynes A-H and trangulynic acid, new cytotxic polyacetylenes from the marine sponge Pellina triangulata” (1996).

Experiments:
Format in all cases: functional
HOP-62 = assay: Cytotoxicity against human HOP62 cells
HOP-92 = assay: Cytotoxicity against human HOP92 cells
NCI-H522 = assay: Cytotoxicity against human NCI-H522 cells
HCT-15 = assay: Cytotoxicity against human HCT15 cells
SF-268 = assay: Cytotoxicity against human SF268 cells
Malme-3M = assay: Cytotoxicity against human MALME-3M cells
IGROV-1 = assay: Cytotoxicity against human IGROV1 cells
OVCAR-3 = assay: Cytotoxicity against human OVCAR-3 cells
SK-OV-3 = assay: Cytotoxicity against human SKOV3 cells
TK-10 = assay: Cytotoxicity against human TK10 cells
DU-145 = assay: Cytotoxicity against human DU145 cells
[1] = Cytotoxicity against human MCF7/ADR cells; details: NCI/ADR-RES
MDA-N = assay: Cytotoxicity against human MDA-N cells
T47D = assay: Cytotoxicity against human T47D cells
PC-3 = assay: Cytotoxicity against human PC3 cells
[2] = read-out: pLC50 (the source's name) (converted)

SMILES: C#C[C@H](O)/C=C/CCCCCCCCCC/C=C\CCCCCCC[C@H](O)C#CC#CC#CCO [TRIANGULYNE A]
- GI50 (HOP-62): 1580 nM
- CC50 (HOP-62; [2]): 75900 nM
- TGI (HOP-62; read-out: pTGI (converted)): 5370 nM
- GI50 (HOP-92): 324 nM
- CC50 (HOP-92; [2]): 15100 nM
- TGI (HOP-92; read-out: pTGI (converted)): 1200 nM
- GI50 (NCI-H522): 151 nM
- CC50 (NCI-H522; [2]): 646 nM
- TGI (NCI-H522; read-out: pTGI (converted)): 380 nM
- GI50 (HCT-15): 407 nM
- LC50 (HCT-15): 7240 nM
- TGI (HCT-15; read-out: pTGI (converted)): 2090 nM
- GI50 (SF-268): 347 nM
- CC50 (SF-268; [2]): 12900 nM
- TGI (SF-268; read-out: pTGI (converted)): 3890 nM
- GI50 (Malme-3M): 251 nM
- LC50 (Malme-3M): 1910 nM
- TGI (Malme-3M; read-out: pTGI (converted)): 646 nM
- GI50 (IGROV-1): 490 nM
- CC50 (IGROV-1; [2]): 8130 nM
- TGI (IGROV-1; read-out: pTGI (converted)): 1820 nM
- GI50 (OVCAR-3): 372 nM
- CC50 (OVCAR-3; [2]): 5250 nM
- TGI (OVCAR-3; read-out: pTGI (converted)): 1510 nM
- GI50 (SK-OV-3): 2820 nM
- CC50 (SK-OV-3; [2]): 37200 nM
- TGI (SK-OV-3; read-out: pTGI (converted)): 7940 nM
- GI50 (TK-10): 646 nM
- CC50 (TK-10; [2]): 11000 nM
- TGI (TK-10; read-out: pTGI (converted)): 2090 nM
- GI50 (DU-145): 1410 nM
- CC50 (DU-145; [2]): 18200 nM
- TGI (DU-145; read-out: pTGI (converted)): 5500 nM
- GI50 [1]: 302 nM
- CC50 [1, 2]: 32400 nM
- TGI ([1]; read-out: pTGI (converted)): 5130 nM
- GI50 (MDA-N): 240 nM
- CC50 (MDA-N; [2]): 8510 nM
- TGI (MDA-N; read-out: pTGI (converted)): 3090 nM
- GI50 (T47D): 1510 nM
- CC50 (T47D; [2]): 47900 nM
- TGI (T47D; read-out: pTGI (converted)): 7240 nM
- GI50 (PC-3): 191 nM
- CC50 (PC-3; [2]): 10000 nM
- TGI (PC-3; read-out: pTGI (converted)): 1100 nM
